Each molecule was assayed against human IDO1 (Homo sapiens, UniProt P14902) (assay: Assessment of human IDO-1 inhibitory activity in HEK cells (human IDO1/HEK293 cells, kynurenine read-out with Ehrlich reagent, absorbance 490 nm)). Settings: HEK Human IDO-1 cellular assay.
Type: cell-based
Set-up: expressed in transfected cells
How it was run: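 HEK293 cells stably expressing human IDO1 were seeded at 10,000 per well in phenol red-free RPMI with 10% FBS, treated with compound for 20 h at 37 °C. Kynurenine was measured after TCA (0.2% final) and 30 min at 50 °C, using Ehrlich reagent, A490. IC50 normalised to DMSO (0%) and 500 nM reference standard (100%).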

human IDO1, sequence (P14902 whole entry): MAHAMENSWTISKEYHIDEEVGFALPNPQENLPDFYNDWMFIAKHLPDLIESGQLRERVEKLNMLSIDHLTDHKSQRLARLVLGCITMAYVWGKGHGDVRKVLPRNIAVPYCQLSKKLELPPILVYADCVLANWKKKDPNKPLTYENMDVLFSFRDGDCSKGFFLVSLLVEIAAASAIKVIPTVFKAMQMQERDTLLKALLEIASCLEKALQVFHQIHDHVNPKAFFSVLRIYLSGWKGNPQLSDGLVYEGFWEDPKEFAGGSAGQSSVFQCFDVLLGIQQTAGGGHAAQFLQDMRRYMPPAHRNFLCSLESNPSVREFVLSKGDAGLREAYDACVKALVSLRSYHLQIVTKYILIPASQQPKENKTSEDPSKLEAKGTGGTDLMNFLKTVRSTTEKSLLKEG

CCC(CC(=O)O)c1cc(NC(=O)Nc2cc(C)no2)c(N(CC(C)C)C2CCCCC2)cc1F (single isomer, unassigned) [Example 1114, 3-(4-(Cyclohexyl(isobutyl)amino)-2-fluoro-5-(3-(3-methylisoxazol-5-yl)ureido)phenyl)pentanoic acid] and CCOc1ccc(NC(=O)Nc2cc(C(COC)CC(=O)O)ccc2N(CC(C)C)C2CCCCC2)cc1 (single isomer, unassigned) [Example 1231, 3-(4-(Cyclohexyl(isobutyl)amino)-3-(3-(4-ethoxyphenyl)ureido)phenyl)-4-methoxybutanoic acid] cannot be ordered by IC50: under 5 nM for the first, under 50 nM for the second.

CC[C@@H](CC(=O)O)c1ccc(N2CCOC[C@@H]2C(C)C)c(NC(=O)Nc2cc(C)on2)c1 (single isomer, unassigned) [Example 77] and CC[C@@H](CC(=O)O)c1ccc(N2CCOC[C@@H]2C(C)C)c(Nc2ccc3nc(C)sc3c2)c1 (single isomer, unassigned) [Example 80] cannot be ordered by IC50: over 50 nM for the first, over 50 nM for the second.

CCOc1ccc(Nc2cc(C(CC)CC(=O)O)cc(F)c2N(CC(C)C)CC(C)C)cc1 (single isomer, unassigned) [Example 97, 3-(4-(diisobutylamino)-3-((4-ethoxyphenyl)amino)-5-fluorophenyl)pentanoic acid] and CCc1ccc(Nc2cc(C(CC)CC(=O)O)cc(F)c2N(CC(C)C)CC(C)C)cc1 (single isomer, unassigned) [Example 96, 3-(4-(diisobutylamino)-3-((4-ethylphenyl)amino)-5-fluorophenyl)pentanoic acid] cannot be ordered by IC50: under 50 nM for the first, under 50 nM for the second.

CCOc1ccc(Nc2cc([C@@H](CC)CC(=O)O)ccc2N(CC)C2CCOCC2)cc1 (single isomer, unassigned) [Example 474] and CC[C@H](CC(=O)O)c1ccc(N(CC)C2CCOCC2)c(NC(=O)Nc2ccc(OC)cc2)c1 (single isomer, unassigned) [Example 529] cannot be ordered by IC50: under 5 nM for the first, under 50 nM for the second.

CCOc1ccc(NC(=O)Nc2cc(C(CC(=O)O)C3CC3)ccc2N(CC(C)C)C2CCOCC2)cc1 (racemic) [Example 1204, (+/−)-3-Cyclopropyl-3-(3-(3-(4-ethoxyphenyl)ureido)-4-(isobutyl(tetrahydro-2H-pyran-4-yl)amino)phenyl)propanoic acid] and Cc1ccc(CC(=O)Nc2cc(C(CC(=O)O)C3CC3)ccc2N(CC(C)C)C2CCOCC2)cc1 (racemic) [Example 1208, (+/−)-3-Cyclopropyl-3-(4-(isobutyl(tetrahydro-2H-pyran-4-yl)amino)-3-(2-(p-tolyl)acetamido)phenyl)propanoic acid] cannot be ordered by IC50: under 50 nM for the first, under 50 nM for the second.

CC[C@@H](CC(=O)O)c1ccc(N(CC(C)(C)O)C2CCCCC2)c(Nc2ccc(C#N)cc2)c1 (single isomer, unassigned) [Example 227] and CCC(CC(=O)O)c1ccc(N(CC(C)C)C2CCCCC2)c(Nc2ccc(Cl)c(OC(F)F)c2)c1 (single isomer, unassigned) [Example 649] cannot be ordered by IC50: under 5 nM for the first, under 50 nM for the second.

CCC(CC(=O)O)c1ccc(N(CC2CC2)C2CCOCC2)c(Nc2ccc3c(c2)OC(F)(F)O3)c1 (single isomer, unassigned) [Example 704, 3-(4-((cyclopropylmethyl) (tetrahydro-2H-pyran-4-yl)amino)-3-((2,2-difluorobenzo[d][1,3]dioxol-5-yl)amino)phenyl) pentanoic acid] and CCC(CC(=O)O)c1ccc(N(CC2CC2)C2CCOCC2)c(Nc2ccc(Cl)cc2)c1 (single isomer, unassigned) [Example 702, 3-(3-((4-chlorophenyl)amino)-4-((cyclopropylmethyl) (tetrahydro-2H-pyran-4-yl)amino)phenyl)pentanoic acid] cannot be ordered by IC50: under 50 nM for the first, under 5 nM for the second.

CCOc1ccc(NC(=O)Nc2cc(C(CC)CC(=O)O)c(F)cc2N(CC(C)C)CC(C)C)cc1 (single isomer, unassigned) [Example 1132, 3-(4-(Diisobutylamino)-5-(3-(4-ethoxyphenyl)ureido)-2-fluorophenyl)pentanoic acid] and COCC(CC(=O)O)c1cc(F)c(N(CC(C)C)CC(C)C)c(NC(=O)Nc2ccc(C)cc2)c1 (single isomer, unassigned) [Example 1194, 3-(4-(Diisobutylamino)-3-fluoro-5-(3-(p-tolyl)ureido)phenyl)-4-methoxybutanoic acid] cannot be ordered by IC50: under 5 nM for the first, under 50 nM for the second.

Going from CC(CC(=O)O)c1ccc(N2C[C@@H](C)O[C@@H](C)C2)c(Nc2ccc(F)cc2)c1 (single isomer, unassigned) [Example 738] to CC[C@@H](CC(=O)O)c1ccc(N2CCOC[C@@H]2C(C)C)c(Nc2ccc(F)cc2)c1 (single isomer, unassigned) [Example 84], the IC50 falls from over 50 nM to under 50 nM.

Compared with COCC(CC(=O)O)c1ccc(N(CC(C)C)C2CCCCC2)c(NC(=O)Nc2cncnc2)c1 (single isomer, unassigned) [991-1], COCC(CC(=O)O)c1ccc(N(CC(C)C)CC(C)C)c(NC(=O)Nc2cncnc2)c1 (single isomer, unassigned) [997-1] is higher in IC50: under 50 nM for the first, over 50 nM for the second. The first is the more potent here.

CCOc1ccc(Nc2cc([C@H](CC)CC(=O)O)ccc2N(CC(C)(C)O)C2CCOCC2)c(F)c1 (single isomer, unassigned) [Example 206] and CC[C@H](CC(=O)O)c1ccc(N(CC)C2CCOCC2)c(Nc2ccc3nc(C)sc3c2)c1 (single isomer, unassigned) [Example 524] cannot be ordered by IC50: under 50 nM for the first, under 50 nM for the second.

CCc1ccc(Nc2cc(C(CC)CC(=O)O)ccc2N2CCOC[C@H]2C(C)C)cc1 (single isomer, unassigned) [Example 902] and CCC(CC(=O)O)c1ccc(N2C[C@@H]3C[C@H]2CN3C(=O)OC(C)(C)C)c(Nc2ccc(C)cc2)c1 (single isomer, unassigned) [Example 445] cannot be ordered by IC50: under 5 nM for the first, under 5 nM for the second.

Compared with CC(C)CN(CC(C)C)c1ccc(C(CC(=O)O)c2ccccc2)cc1NC(=O)Nc1ccc(OC(F)(F)F)cc1 (racemic) [Example 1009, (+/−)3-(4-(Diisobutylamino)-3-(3-(4-(trifluoromethoxy)phenyl)ureido)phenyl)-3-phenylpropanoic acid], CC[C@@H](CC(=O)O)c1ccc(N(CC(C)C)CC(C)C)c(Nc2ccc(Cl)cc2)c1 (single isomer, unassigned) [Example 11] is lower in IC50: over 50 nM for the first, under 50 nM for the second. The second is the more potent here.

CC[C@H](CC(=O)O)c1ccc(N(CC(C)C)C2CCS(=O)(=O)CC2)c(Nc2ccc3c(c2)OC(F)(F)O3)c1 (single isomer, unassigned) [Example 215] and CC[C@@H](CC(=O)O)c1ccc(N(CC(C)C)C2CCS(=O)(=O)CC2)c(Nc2ccc3sc(C)nc3c2)c1 (single isomer, unassigned) [Example 219] cannot be ordered by IC50: under 5 nM for the first, under 5 nM for the second.

Going from CCC(CC(=O)O)c1ccc(N(CC2CC2)C(C)C)c(Nc2ccc3nc(C)sc3c2)c1 (single isomer, unassigned) [Example 716, 3-(4-((Cyclopropylmethyl)(isopropyl)amino)-3-((2-methylbenzo[d]thiazol-6-yl)amino)phenyl)pentanoic acid] to CCOc1ncc(Nc2cc(C(CC)CC(=O)O)ccc2N(CC2CC2)C(C)C)cn1 (single isomer, unassigned) [Example 718, 3-(4-((cyclopropylmethyl) (isopropyl)amino)-3-((2-ethoxypyrimidin-5-yl)amino)phenyl)pentanoic acid], the IC50 falls from over 50 nM to under 50 nM. The second is the more potent here.

CC(C)CN(c1ccc(C(C)CC(=O)O)cc1Nc1nc2ccccc2o1)C1CCOCC1 (single isomer, unassigned) [Example 969, 3-(3-(Benzo[d]oxazol-2-ylamino)-4-(isobutyl(tetrahydro-2H-pyran-4-yl)amino)phenyl)butanoic acid] and CC[C@H](CC(=O)O)c1ccc(N(CC)C2CCOCC2)c(Nc2ccc3nncn3c2)c1 (single isomer, unassigned) [Example 512] cannot be ordered by IC50: over 50 nM for the first, over 50 nM for the second.

Compared with CCC(CC(=O)O)c1ccc(N2CCC[C@H]2C(C)(C)F)c(Nc2ccc3c(c2)OC(F)(F)O3)c1 (single isomer, unassigned) [Example 796], CCC(CC(=O)O)c1ccc(N2C[C@@H]3C[C@H]2CN3C(=O)OC(C)(C)C)c(Nc2ccccc2)c1 (single isomer, unassigned) [Example 446] is lower in IC50: over 50 nM for the first, under 50 nM for the second.

CCOc1ccc(CC(=O)Nc2cc(C(CC(=O)O)C3CC3)ccc2N(CC(C)C)C2CCCCC2)cc1 (single isomer, unassigned) [Example 1248, 3-(4-(Cyclohexyl(isobutyl)amino)-3-(2-(4-ethoxyphenyl)acetamido)phenyl)-3-cyclopropylpropanoic acid] and COC(Cc1ccc(N(CC(C)C)C2CCCCC2)c(NC(=O)Nc2ccc(C#N)cc2F)c1)C(=O)O (racemic) [Example 1011, 3-(3-(3-(4-Cyano-2-fluorophenyl)ureido)-4-(cyclohexyl(isobutyl)amino)phenyl)-2-methoxypropanoic acid] cannot be ordered by IC50: under 5 nM for the first, under 50 nM for the second.

Going from CCN(c1ccc(C(C)(C)CC(=O)O)cc1Nc1ccc2nc(C)sc2c1)C1CCOCC1 [Example 164, 3-(4-(ethyl(tetrahydro-2H-pyran-4-yl)amino)-3-((2-methylbenzo[d]thiazol-6-yl)amino)phenyl)-3-methylbutanoic acid] to CC[C@H](CC(=O)O)c1ccc(N(CC(C)C)C2CCS(=O)(=O)CC2)c(NC(=O)Nc2ccc(C)cc2)c1 (single isomer, unassigned) [Example 209], the IC50 rises from under 50 nM to over 50 nM. The first is the more potent here.

First: CCC(CC(=O)O)c1ccc(N(CC(C)C)CC(C)C)c(NC(=O)Cc2ccc(C#N)cc2)c1 (single isomer, unassigned) [Example 1104, 3-(3-(2-(4-Cyanophenyl)acetamido)-4-(diisobutylamino)phenyl)pentanoic acid]
Second: COCC(CC(=O)OC)c1ccc(N(CC(C)C)C2CCC(OC)CC2)c(NC(=O)Nc2ccc(C)cc2)c1 (racemic) [Example 1005, (+/−)-Methyl 3-(4-(isobutyl((1R,4R)-4-methoxycyclohexyl)amino)-3-(3-(p-tolyl)ureido)phenyl)-4-methoxybutanoate]
The IC50 of the first is lower: under 5 nM for the first, over 50 nM for the second.

Reference: patent US9790169B2, “IDO inhibitors” (BRISTOL-MYERS SQUIBB COMPANY, priority 2015, dated 2017)
